According to US20130267494A1, “1,4-OXAZEPANE DERIVATIVES” (priority 2010, published 2013):
Where a name gives a salt, the structure may show the parent alone.

Test system: SD female rats
Test: Measurement of urethral resistance increasing effect (leak point pressure, intravenous administration)
Type: in vivo, rat
Settings: for urethral resistance increasing effect (cmH2O): SD female rats
Procedure: The urethral resistance increasing effect in rat was measured by a modified method of Matsumoto et al. (WO2009/063992) as follows. That is, SD female rats (CLEA Japan, Inc.) were anesthetized with isoflurane (1.0%; Abbott), and the spinal cord was transected at Th8-9 to avoid the voiding reflex. After laparotomy, an intravesical pressure measurement catheter and a saline infusion catheter (PE-100; Clay Adams) were inserted into the bladder. Thereafter, the abdomen of the rat was closed with aronalpha A “Sankyo” (Daiichi Sankyo). The rat with an inserted catheter was placed in a Bollman cage (KN-326 Bollman cage TYPE III; Natsume). The intravesical pressure measurement catheter was connected to a computer via a pressure transducer (REF685640; Nihon Koden), an amplifier (RPM-6008M; Nihon Koden), and a multi-channel data analyzer (MP150; Biopack), and changes in the intravesical pressure were recorded on a hard disc at a frequency of 100 samples/sec. The saline infusion catheter was connected to a 50 mL syringe (Terumo) filled with saline colored with Evans Blue (Wako). The saline was infused into the bladder from the 50 mL syringe filled with saline at a rate of 0.1 mL/sec by using an infusion pump (Kds100; KD Scientific). When the saline leaked from the urethral orifice, infusion was discontinued, and the saline in the bladder was released. The maximum pressure observed during infusion of saline into the bladder and leakage thereof was taken as an LPP (Leak point pressure) value. The measurement was repeated until the LPP value was stabilized, and an average of continuous three stable LPP values was taken as the result. […] The LPP value (Pre value) was measured, a drug was intravenously administered, and the measurement of LPP value (Post value) was again started 10 min after administration. […]
The compound of Example 6 (0.3 mg/kg), the compound of Example 6 (1.0 mg/kg) and the vehicle were administered to the rats, and the urethral resistance increasing effect was measured by the aforementioned method.

In the case of `CC(=O)NC[C@H]1CNCCO[C@@H]1c1ccc(Cl)c(Cl)c1` (racemic) [Example 6, N-{[(6RS,7SR)-7-(3,4-dichlorophenyl)-1,4-oxazepan-6-yl]methyl}acetamide monohydrochloride], the “urethral resistance increasing effect (cmH2O)” value (dose 0.3 mg/kg) is reported as 12.8 ± 1.1 cmH2O, the “urethral resistance increasing effect (cmH2O)” value (dose 1.0 mg/kg) is reported as 19.1 ± 1.8 cmH2O and the “urethral resistance increasing effect (LPP Post value minus Pre value) compared to vehicle” value (spinal cord-transected SD female rats, intravenous 0.3 and 1.0 mg/kg, LPP measured from 10 min after administration, Williams' test) is reported as “dose-dependent and significant urethral resistance increasing effect”.
